Our source for the viability, T/C and IC50 values is PubChem BioAssay AID1918948 (Molecular Pharmacology Branch, DTP, NCI, 2023).

Structures are written as SMILES. Where “and” joins values, the source holds several entries; their conditions need not be identical. Identical values can stand only once.

The test system of this assay is K-562 leukemia growth, % test/control. Description: Anticancer human tumor K-562 cell line growth inhibition.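 On all read-outs here: spheroids exposed to compounds for 7 days.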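 On viability, T/C: 100% = DMSO vehicle wells and lower values mean fewer viable cells.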 Conditions: spheroids with HUVEC and MSC; for viability, T/C: stronger effect = lower value; for IC50: curve of compound. From the text:
Multicellular complex tumor spheroid response to LSD1 Inhibitor Iadademstat in combination with a variety of drugs and investigational agents in selected tumor cell lines
The current study was undertaken to assess response to LSD1 inhibitors in combination with standard-of-care drugs and investigational agents in solid tumor complex spheroid models as well as in the K-562 leukemia. Complex spheroids include a stromal component modeled by human endothelial cells (HUVEC) and fibroblasts modeled by human mesenchymal stem cells (MSCs). The concentration ranges selected for each drug and investigational agent were based upon clinically achievable concentrations if the clinical Cmax of the agent was known.
Compounds. The drugs and investigational agents used in this study are listed on Table 1. All of the agents used, including staurosporine (NSC755774) and gemcitabine (NSC613327), were obtained from the Developmental Therapeutics Program, NCI. FDA-approved anticancer drugs are available from the NCI at http://dtp.nci.nih.gov/branches/dscb/oncology_drugset_explanation.html. Drugs and investigational agents were >95% pure by proton nuclear magnetic resonance (NMR) and liquid chromatography/mass spectrometry (LC/MS). Stock solutions were prepared at 400x in DMSO, stored at -70 degrees C, and diluted in fresh medium prior to their use. The final concentration of DMSO in cell culture wells never exceeded 0.25% (v/v). The FDA-approved anticancer drug set is available from the Developmental Therapeutics Program at https://dtp.cancer.gov/organization/dscb/obtaining/available_plates.htm. All drugs and investigational agents were tested over a range starting from a high concentration at or near the clinical Cmax and decreasing in half-log increments. If the clinical Cmax for an agent had not been determined, the highest concentration tested was 10 microM.
Cell Lines. The patient-derived cancer cell (PDC) lines: 292921-168-R-J2-PDC, K24384-001-R-PDC, and 521955-158-R2-J5-PDC pancreatic carcinomas, 556581-035-R-J1 ovarian carcinoma, 324938-238-R-J1-PDC, 855422-203-R-J1-PDC and 883617-216-R-J1-PDC urothelial bladder carcinomas, 743489-274-T-PDC renal cell carcinoma, 138582-R-J1 Merkel cell tumor, K60290-347-R-J1 and K57222-313-R-J1-PDC glioblastomas, 653999-131-R-J2-PDC, LG0703-F948-PDC, and 349418-098-R-PDC non-small cell lung carcinomas, 885512-296-R-J2-PDC, 171881-019-R-J1-PDC breast carcinomas and 186277-243-T-J2-PDC and 233499-124-R-J2-PDC colon carcinomas were obtained from the NCI Patient-Derived Models Repository (PDMR, https://pdmr.cancer.gov). The established cell lines NCI/ADR-RES (RRID:CVCL_14520 and OVCAR-5 (RRID:CVCL_1628) ovarian carcinomas, 786-O (RRID:CVCL_1051) and A498 (RRID:CVCL_A498) renal cell carcinoma, NCI-H211 (ATCC, cat. CRL-5824; RRID:CVCL_1529), NCI-H196 (ATCC, cat. CRL-5823, RRID:CVCL_1509), SW 1271 (ATCC, cat. CRL-2177, RRID:CVCL_1716) and NCI-H1876 (ATCC, cat. CRL-5902, RRID:CVCL_1503) small cell lung carcinomas, MDA-MB-231 (RRID:CVCL_0062) and MDA-MB-468 (RRID:CVCL_0419)breast carcinomas (10-12). Pooled donor human umbilical vein endothelial cells (HUVEC, Lonza, cat. CC-2519) and human mesenchymal stem cells (hMSC, Lonza, cat. PT-2501) were purchased from Lonza (Walkersville, MD).
Cell Culture. All cells were maintained in an incubator at 37 degrees C and 5% CO2 with 95% humidity. The PDC lines were cultured according to standard operating procedures established by the NCI PDMR (https://pdmr.cancer.gov). Briefly all PDCs were thawed and cultured in Matrigel-coated flasks prepared with a working solution of 1X Ham's F-12 nutrient mix, without supplementation (Invitrogen, Waltham, MA, cat. 11765054), 100 U/mL penicillin-streptomycin (Invitrogen, cat. 15140122), and 2.5% Matrigel (Corning Inc., Corning, NY, cat. 354248) for the first three passages. […]

As a reminder, the viability, T/C is the result in the treated group divided by that in the control group, in per cent. As usually defined, the IC50 is the concentration at which inhibition is half-maximal. On to `CC(C)CC(NC(=O)C(Cc1ccccc1)NC(=O)c1cnccn1)B(O)O` (stereo not given), for which the IC50 was 0.002 µM and 0.000584 µM. In addition, where the note is “compound 0.000316 µM”, the viability, T/C is 98.7% and 102%. For the setting “compound 0.00316 µM”, the viability, T/C is 18.8% and 1.3%. Under “compound 0.01 µM”, the viability, T/C was 1.39% and 0.58%. The viability, T/C (compound 0.0316 µM) is 1.89% and 0.51%. The viability, T/C (compound 0.1 µM) is 3.68% and 0.49%.
For `CC(C)CC(NC(=O)CNC(=O)c1cc(Cl)ccc1Cl)B1OC(=O)CC(CC(=O)O)(C(=O)O)O1` (stereo not given), the IC50 is 0.0174 µM and 0.0148 µM. The viability, T/C (compound 0.000316 µM) is 103% and 97%. Besides, the viability, T/C (compound 0.001 µM) was 97.5% and 95.5%. In addition, the viability, T/C (compound 0.00316 µM) was 95.6% and 97.4%. In addition, the viability, T/C (compound 0.01 µM) is 74.2% and 68.6%. The viability, T/C (compound 0.0316 µM) is 24.2% and 13.3%. Also, where the note is “compound 0.1 µM”, the viability, T/C was 6.61% and 2.45%.
For the compound `CC1(C)CCC(CN2CCN(c3ccc(C(=O)NS(=O)(=O)c4ccc(NCC5CCOCC5)c([N+](=O)[O-])c4)c(Oc4cnc5[nH]ccc5c4)c3)CC2)=C(c2ccc(Cl)cc2)C1`, the IC50 was 7.52 µM and 4.73 µM. Besides, under “compound 0.0316 µM”, the viability, T/C is 102% and 101%. Further, the viability, T/C (compound 0.1 µM) was 103% and 107%. Further, where the note is “compound 0.316 µM”, the viability, T/C is 100% and 108%. In addition, the viability, T/C (compound 1 µM) was 109% and 117%. Moreover, the viability, T/C (compound 3.16 µM) is 117% and 75.7%.
Take `CC1COCCN1c1cc(-c2ccnn2C)c2ccnc(-c3ccn[nH]3)c2n1` (stereo not given): the IC50 was 0.0131 µM and < 0.00316 µM. In addition, the viability, T/C (compound 0.00316 µM) was 88.3% and 28.6%. In addition, where the note is “compound 0.01 µM”, the viability, T/C is 59.4% and 15.3%. In addition, the viability, T/C (compound 0.0316 µM) is 19.1% and 3.08%. Also, where the note is “compound 0.1 µM”, the viability, T/C is 5.33% and 2.16%. For the same compound, the viability, T/C (compound 0.316 µM) is 3.07% and 2.39%. In addition, the viability, T/C (compound 1 µM) was 2.84% and 2.02%.
Consider `CCN(c1cc(-c2ccc(CN3CCOCC3)cc2)cc(C(=O)NCc2c(C)cc(C)[nH]c2=O)c1C)C1CCOCC1`, for which the IC50 was > 3 µM and 2.14 µM. For the same compound, the viability, T/C (compound 0.00949 µM) is 110% and 112%. The viability, T/C (compound 0.03 µM) is 107% and 112%. Further, under “compound 0.0949 µM”, the viability, T/C is 105% and 114%. Moreover, the viability, T/C (compound 0.3 µM) was 105%. Besides, under “compound 0.949 µM”, the viability, T/C was 107% and 76.7%. In addition, the viability, T/C (compound 3 µM) was 104% and 38.9%.
As for `CC[C@@]1(O)C(=O)OCc2c1cc1n(c2=O)Cc2cc3c(CN(C)C)c(O)ccc3nc2-1`, the IC50 is 0.00223 µM and 0.00798 µM. For the same compound, the viability, T/C (compound 0.000316 µM) was 98.4% and 100%. Moreover, where the note is “compound 0.001 µM”, the viability, T/C was 71.1% and 99.8%. In addition, the viability, T/C (compound 0.00316 µM) was 34.6% and 58.8%. For the same compound, where the note is “compound 0.01 µM”, the viability, T/C is 32.6% and 50.7%. Besides, under “compound 0.0316 µM”, the viability, T/C was 20.8% and 24.8%. Also, under “compound 0.1 µM”, the viability, T/C was 11.2%.
Take `CCc1c2c(nc3ccc(O)cc13)-c1cc3c(c(=O)n1C2)COC(=O)[C@]3(O)CC`: the IC50 was less than 0.000949 µM. Under “compound 0.000949 µM”, the viability, T/C is 15% and 13.4%. The viability, T/C (compound 0.003 µM) is 10.5% and 9.22%. The viability, T/C (compound 0.00949 µM) is 5.78% and 4.21%. Further, the viability, T/C (compound 0.03 µM) is 2.47% and 1.25%. Also, the viability, T/C (compound 0.0949 µM) is 0.78% and 0.75%. Besides, the viability, T/C (compound 0.3 µM) was 0.65% and 0.82%.
For `COc1cc(C2c3cc4c(cc3C(OC3OC5COC(C)OC5C(O)C3O)C3COC(=O)C23)OCO4)cc(OC)c1O` (stereo not given), the IC50 was 0.029 µM and 0.0521 µM. In addition, the viability, T/C (compound 0.00949 µM) is 89.7% and 84.4%. Besides, the viability, T/C (compound 0.03 µM) was 48.8% and 36.5%. Moreover, the viability, T/C (compound 0.0949 µM) was 23.6% and 39.6%. Moreover, the viability, T/C (compound 0.3 µM) is 41% and 42.6%. The viability, T/C (compound 0.949 µM) is 34.9% and 9.87%. The viability, T/C (compound 3 µM) is 8.88% and 1.67%.
`COc1cc(Nc2ncc3c(n2)-c2ccc(Cl)cc2C(c2c(F)cccc2OC)=NC3)ccc1C(=O)O`: the IC50 is 0.008 µM and < 0.00316 µM. For the same compound, the viability, T/C (compound 0.00316 µM) was 83.3% and 43.7%. For the same compound, where the note is “compound 0.01 µM”, the viability, T/C was 41.7% and 44.3%. Moreover, the viability, T/C (compound 0.0316 µM) was 40% and 40.6%. Moreover, under “compound 0.1 µM”, the viability, T/C is 39.9% and 40.8%. The viability, T/C (compound 0.316 µM) is 37.6% and 11.2%.
